{"source": "ChEMBL document CHEMBL1201862", "about": "“PubChem BioAssay data set” (2004)", "test_in_all_cases": "NCI-60 cell line screen, 48 h", "key": {"EKVX": {"test_system": "EKVX"}, "HCC 2998": {"test_system": "HCC 2998"}, "HCT-15": {"test_system": "HCT-15"}, "HOP-62": {"test_system": "HOP-62"}, "HOP-92": {"test_system": "HOP-92"}, "KM12": {"test_system": "KM12"}, "Malme-3M": {"test_system": "Malme-3M"}, "NCI-H460": {"test_system": "NCI-H460"}, "OVCAR-4": {"test_system": "OVCAR-4"}, "OVCAR-5": {"test_system": "OVCAR-5"}, "OVCAR-8": {"test_system": "OVCAR-8"}, "SF-539": {"test_system": "SF-539"}, "SK-MEL-28": {"test_system": "SK-MEL-28"}, "SK-MEL-2": {"test_system": "SK-MEL-2"}, "SK-OV-3": {"test_system": "SK-OV-3"}, "SR": {"test_system": "SR"}, "U-251": {"test_system": "U-251"}, "MOLT-4": {"test_system": "MOLT-4"}, "RXF 393": {"test_system": "RXF 393"}}, "note": "“And” between values parts separate entries of the source, which are not always exact repeats. Equal entries are not always repeated.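 Grown in 96-well plates, cells were treated for 48 hours with each compound at five concentrations. Insufficient inhibition: endpoint recorded as highest concentration tested. At the GI50, growth is halved.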 The source made the active and inactive calls. Rule as the data show it: active = GI50 up to about 1.1 µM and inactive = higher."}
{"compound": "CCNC(=O)CCC(C)[C@H]1CCC2C3C(C[C@H](OC(C)=O)[C@@]21C)[C@@]1(C)CCC2(C[C@H]1C[C@H]3OC(C)=O)OOC1(CCC(C)CC1)OO2", "note": "(stereo partly specified)", "values": [{"measurement": "GI50", "setting": "EKVX", "value": "1.39 µM (inactive) and 1.3 µM (inactive)"}, {"measurement": "GI50", "setting": "HCC 2998", "value": "1.75 µM (inactive) and 3.1 µM (inactive)"}, {"measurement": "GI50", "setting": "HCT-15", "value": "1.99 µM and 2 µM"}, {"measurement": "GI50", "setting": "HOP-62", "value": "689 nM (active) and 1.31 µM (inactive)"}, {"measurement": "GI50", "setting": "HOP-92", "value": "1.68 µM (inactive) and 1.44 µM (inactive)"}, {"measurement": "GI50", "setting": "KM12", "value": "1.64 µM (inactive) and 1.57 µM (inactive)"}, {"measurement": "GI50", "setting": "Malme-3M", "value": "2.23 µM (inactive) and 1.6 µM (inactive)"}, {"measurement": "GI50", "setting": "NCI-H460", "value": "2.39 µM (inactive) and 1.75 µM (inactive)"}, {"measurement": "GI50", "setting": "OVCAR-4", "value": "1.24 µM (inactive) and 1.58 µM (inactive)"}, {"measurement": "GI50", "setting": "OVCAR-5", "value": "2.7 µM (inactive) and 1.82 µM (inactive)"}, {"measurement": "GI50", "setting": "OVCAR-8", "value": "2.61 µM (inactive) and 1.51 µM (inactive)"}, {"measurement": "GI50", "setting": "SF-539", "value": "1.97 µM (inactive) and 2.75 µM (inactive)"}, {"measurement": "GI50", "setting": "SK-MEL-28", "value": "2.9 µM (inactive) and 3.47 µM (inactive)"}, {"measurement": "GI50", "setting": "SK-MEL-2", "value": "1.58 µM (inactive) and 1.61 µM (inactive)"}, {"measurement": "GI50", "setting": "SK-OV-3", "value": "4.02 µM (inactive) and 2.54 µM (inactive)"}, {"measurement": "GI50", "setting": "SR", "value": "1.17 µM (inactive) and 1.03 µM (active)"}, {"measurement": "GI50", "setting": "U-251", "value": "2.09 µM (inactive) and 1.6 µM (inactive)"}]}
{"compound": "Cc1c2c(n(CCc3ccccc3)c1C)NN=C(C#N)S2(=O)=O", "values": [{"measurement": "GI50", "setting": "EKVX", "value": "> 100 µM (inactive)"}, {"measurement": "GI50", "setting": "HCC 2998", "value": "> 100 µM (inactive)"}, {"measurement": "GI50", "setting": "HCT-15", "value": "> 100", "unit": "µM"}, {"measurement": "GI50", "setting": "HOP-62", "value": "> 100 µM (inactive)"}, {"measurement": "GI50", "setting": "KM12", "value": "> 100 µM (inactive)"}, {"measurement": "GI50", "setting": "MOLT-4", "value": "> 100 µM (inactive)"}, {"measurement": "GI50", "setting": "Malme-3M", "value": "> 100 µM (inactive)"}, {"measurement": "GI50", "setting": "NCI-H460", "value": "> 100 µM (inactive)"}, {"measurement": "GI50", "setting": "OVCAR-4", "value": "> 100 µM (inactive)"}, {"measurement": "GI50", "setting": "OVCAR-5", "value": "> 100 µM (inactive)"}, {"measurement": "GI50", "setting": "OVCAR-8", "value": "> 100 µM (inactive)"}, {"measurement": "GI50", "setting": "SF-539", "value": "> 100 µM (inactive)"}, {"measurement": "GI50", "setting": "SK-MEL-28", "value": "> 100 µM (inactive)"}, {"measurement": "GI50", "setting": "SK-MEL-2", "value": "> 100 µM (inactive)"}, {"measurement": "GI50", "setting": "SK-OV-3", "value": "> 100 µM (inactive)"}, {"measurement": "GI50", "setting": "SR", "value": "6.53 µM (inactive)"}, {"measurement": "GI50", "setting": "U-251", "value": "> 100 µM (inactive)"}]}
{"compound": "COC(CNC(=O)C(C)NC(=O)CCc1ccccc1)OC", "note": "(stereo unspecified)", "values": [{"measurement": "GI50", "setting": "EKVX", "value": "> 100 µM (inactive)"}, {"measurement": "GI50", "setting": "HCT-15", "value": "> 100", "unit": "µM"}, {"measurement": "GI50", "setting": "HOP-92", "value": "> 100 µM (inactive)"}, {"measurement": "GI50", "setting": "KM12", "value": "> 100 µM (inactive)"}, {"measurement": "GI50", "setting": "MOLT-4", "value": "> 100 µM (inactive)"}, {"measurement": "GI50", "setting": "Malme-3M", "value": "> 100 µM (inactive)"}, {"measurement": "GI50", "setting": "NCI-H460", "value": "> 100 µM (inactive)"}, {"measurement": "GI50", "setting": "OVCAR-4", "value": "> 100 µM (inactive)"}, {"measurement": "GI50", "setting": "OVCAR-5", "value": "> 100 µM (inactive)"}, {"measurement": "GI50", "setting": "OVCAR-8", "value": "> 100 µM (inactive)"}, {"measurement": "GI50", "setting": "RXF 393", "value": "> 100 µM (inactive)"}, {"measurement": "GI50", "setting": "SF-539", "value": "> 100 µM (inactive)"}, {"measurement": "GI50", "setting": "SK-MEL-28", "value": "> 100 µM (inactive)"}, {"measurement": "GI50", "setting": "SK-MEL-2", "value": "> 100 µM (inactive)"}, {"measurement": "GI50", "setting": "SK-OV-3", "value": "> 100 µM (inactive)"}, {"measurement": "GI50", "setting": "SR", "value": "> 100 µM (inactive)"}, {"measurement": "GI50", "setting": "U-251", "value": "> 100 µM (inactive)"}]}
{"compound": "CC(C)C1C(=O)N2CCCC2C2(O)OC(NC(=O)C3C=C4c5cccc6[nH]cc(c56)CC4N(C)C3)(C(C)C)C(=O)N12", "note": "(stereo unspecified)", "values": [{"measurement": "GI50", "setting": "EKVX", "value": "19.5 µM (inactive)"}, {"measurement": "GI50", "setting": "HCC 2998", "value": "19.7 µM (inactive)"}, {"measurement": "GI50", "setting": "HCT-15", "value": 20.5, "unit": "µM"}, {"measurement": "GI50", "setting": "HOP-62", "value": "23.4 µM (inactive)"}, {"measurement": "GI50", "setting": "HOP-92", "value": "14.2 µM (inactive)"}, {"measurement": "GI50", "setting": "KM12", "value": "20.7 µM (inactive)"}, {"measurement": "GI50", "setting": "MOLT-4", "value": "17 µM (inactive)"}, {"measurement": "GI50", "setting": "NCI-H460", "value": "19 µM (inactive)"}, {"measurement": "GI50", "setting": "OVCAR-4", "value": "18.3 µM (inactive)"}, {"measurement": "GI50", "setting": "OVCAR-5", "value": "13.2 µM (inactive)"}, {"measurement": "GI50", "setting": "OVCAR-8", "value": "19.2 µM (inactive)"}, {"measurement": "GI50", "setting": "SF-539", "value": "19.8 µM (inactive)"}, {"measurement": "GI50", "setting": "SK-MEL-28", "value": "25.5 µM (inactive)"}, {"measurement": "GI50", "setting": "SK-MEL-2", "value": "17.7 µM (inactive)"}, {"measurement": "GI50", "setting": "SR", "value": "32.4 µM (inactive)"}, {"measurement": "GI50", "setting": "U-251", "value": "26.4 µM (inactive)"}]}
{"compound": "CC(=O)OCC1OC(n2cnc(C(N)=S)c2N)C(OC(C)=O)C1OC(C)=O", "note": "(stereo unspecified)", "values": [{"measurement": "GI50", "setting": "HCC 2998", "value": "> 100 µM (inactive)"}, {"measurement": "GI50", "setting": "HCT-15", "value": "> 100", "unit": "µM"}, {"measurement": "GI50", "setting": "HOP-62", "value": "> 100 µM (inactive)"}, {"measurement": "GI50", "setting": "HOP-92", "value": "> 100 µM (inactive)"}, {"measurement": "GI50", "setting": "KM12", "value": "> 100 µM (inactive)"}, {"measurement": "GI50", "setting": "MOLT-4", "value": "> 100 µM (inactive)"}, {"measurement": "GI50", "setting": "Malme-3M", "value": "> 100 µM (inactive)"}, {"measurement": "GI50", "setting": "NCI-H460", "value": "> 100 µM (inactive)"}, {"measurement": "GI50", "setting": "OVCAR-4", "value": "> 100 µM (inactive)"}, {"measurement": "GI50", "setting": "OVCAR-5", "value": "> 100 µM (inactive)"}, {"measurement": "GI50", "setting": "OVCAR-8", "value": "> 100 µM (inactive)"}, {"measurement": "GI50", "setting": "SF-539", "value": "> 100 µM (inactive)"}, {"measurement": "GI50", "setting": "SK-MEL-28", "value": "> 100 µM (inactive)"}, {"measurement": "GI50", "setting": "SK-MEL-2", "value": "> 100 µM (inactive)"}, {"measurement": "GI50", "setting": "SK-OV-3", "value": "> 100 µM (inactive)"}, {"measurement": "GI50", "setting": "SR", "value": "> 100 µM (inactive)"}, {"measurement": "GI50", "setting": "U-251", "value": "> 100 µM (inactive)"}]}
{"compound": "N#CCCC1(CCC#N)CCc2ccccc2C1=O", "values": [{"measurement": "GI50", "setting": "EKVX", "value": "> 100 µM (inactive)"}, {"measurement": "GI50", "setting": "HCC 2998", "value": "> 100 µM (inactive)"}, {"measurement": "GI50", "setting": "HCT-15", "value": "> 100", "unit": "µM"}, {"measurement": "GI50", "setting": "HOP-62", "value": "> 100 µM (inactive)"}, {"measurement": "GI50", "setting": "KM12", "value": "> 100 µM (inactive)"}, {"measurement": "GI50", "setting": "MOLT-4", "value": "> 100 µM (inactive)"}, {"measurement": "GI50", "setting": "Malme-3M", "value": "> 100 µM (inactive)"}, {"measurement": "GI50", "setting": "NCI-H460", "value": "> 100 µM (inactive)"}, {"measurement": "GI50", "setting": "OVCAR-4", "value": "> 100 µM (inactive)"}, {"measurement": "GI50", "setting": "OVCAR-5", "value": "> 100 µM (inactive)"}, {"measurement": "GI50", "setting": "OVCAR-8", "value": "> 100 µM (inactive)"}, {"measurement": "GI50", "setting": "SF-539", "value": "> 100 µM (inactive)"}, {"measurement": "GI50", "setting": "SK-MEL-28", "value": "> 100 µM (inactive)"}, {"measurement": "GI50", "setting": "SK-MEL-2", "value": "> 100 µM (inactive)"}, {"measurement": "GI50", "setting": "SK-OV-3", "value": "> 100 µM (inactive)"}, {"measurement": "GI50", "setting": "SR", "value": "> 100 µM (inactive)"}, {"measurement": "GI50", "setting": "U-251", "value": "> 100 µM (inactive)"}]}
